Results from article PMC6968685 (Journal of Enzyme Inhibition and Medicinal Chemistry, 2020).
Where two headings read alike, the source gives them in different places.

How the values were obtained:
[1] = system: P. falciparum CQ-sensitive strain 3D7; assay: In vitro antiplasmodial activity, SYBR Green I fluorescence-based method, strain 3D7; assay type: cell-based; settings: for IC50: Plasmodium falciparum, chloroquine-sensitive strain 3D7, 48 h incubation, read-out: P. falciparum strains IC50 values, 3D7; for Selectivity index HepG2/3D7: SI = CC50 HepG2 / IC50 P. falciparum 3D7
Protocol: The in vitro antiplasmodial activities were tested over concentrations ranging from […] against culture-adapted P. falciparum reference strains 3D7 and W2. […] The parasites were cultivated in RPMI medium (Sigma-Aldrich, Lyon, France) supplemented with 0.5% Albumax I (Life Technologies Corporation, Paisley, UK), hypoxanthine (Sigma-Aldrich), and gentamicin (Sigma-Aldrich) with human erythrocytes and were incubated at 37 °C in a candle jar, as described previously[43] .The P. falciparum drug susceptibility test was carried out in 96-well flat-bottom sterile plates in a final volume of 250 µl. After 48 h incubation period with the drugs, quantities of DNA in treated and control cultures of parasites in human erythrocytes were quantified using the SYBR Green I (Sigma-Aldrich) fluorescence-based method[44]^,[45]. Briefly, after incubation, plates were frozen at −20 °C until use. Plates were then thawed for 2 h at room temperature, and 100 µl of each homogenised culture was transferred to a well of a 96-well flat-bottom sterile black plate (Nunc, Inc., Rochester, NY) that contained 100 µl of the SYBR Green I lysis buffer (2xSYBR Green, 20 mM Tris base pH 7.5, 5 mM EDTA, 0.008% w/v saponin, 0.08% w/v Triton X-100). […] Plates were incubated for 1 h at room temperature and then read on a fluorescence plate reader (Tecan, Grödig, Austria) using excitation and emission wavelengths of 485 and 535 nm, respectively. IC50 values were calculated by non-linear regression analysis of data from dose-response curves, using TableCurve 2D version 5.0 software (Systat Software, San Jose, CA). IC50 values are reported as means calculated from three independent experiments.

[2] = system: L. donovani (MHOM/IN/00/DEVI) promastigotes; assay: In vitro antileishmanial activity, MTT assay on promastigotes; assay type: cell-based; settings: Leishmania donovani, 72 h incubation, ≥10 = no activity noted at the highest concentration tested
Protocol: L. donovani (MHOM/IN/00/DEVI) used in this study was provided by the CNR Leishmania (Montpellier, France). The effects of the tested compounds on the growth of L. donovani (MHOM/IN/00/DEVI) promastigotes were assessed by MTT assay. Briefly, promastigotes in log-phase in Schneider’s medium supplemented with 20% foetal calf serum (FCS), 2 mM L-glutamine and antibiotics (100 U/ml penicillin and 100 µg/ml streptomycin), were incubated at an average density of 10^6 parasites/ml in sterile 96-well plates with various concentrations of compounds dissolved in DMSO (final concentration less than 0.5% v/v), in duplicate. Appropriate controls treated with DMSO and amphotericin B (reference drug purchased from Sigma-Aldrich) were added to each set of experiments. After 72 h incubation period at 27 °C, parasite metabolic activity was determined. Each well was microscopically examined for precipitate formation. To each well was added 20 µl of 5 mg/ml MTT [3–(4,5-dimethylthiazol-2-yl)-2,5-diphenyltetrazolium bromide)] solution followed by 4 h incubation time. The enzyme reaction was stopped by addition of 100 µl of 50% isopropanol/10% sodium dodecyl sulfate. Plates were vigorously shaken (300 rpm) for 10 min, and the absorbance was measured at 570 nm in a BIO-TEK ELx808 Absorbance Microplate Reader. […] IC50 of the parasite’s growth (half maximal inhibitory concentration or IC50 values) were then calculated from the obtained experimental results using a previously described regression programme.

[3] = system: T. brucei brucei AnTat 1.9; assay: In vitro antitrypanosomal activity, Alamar Blue assay; assay type: cell-based; settings: for Selectivity index HepG2/Tryp.: SI = CC50 HepG2 / IC50 Trypanosoma brucei brucei; for IC50: Trypanosoma brucei, slender bloodstream trypomastigotes, AnTat 1.9 strain, read-out: Trypanosoma brucei brucei IC50 values, Trypanos Antat 1.9
Protocol: The effects of the tested compounds on the growth of T. brucei brucei were assessed using an Alamar Blue® assay described by Räz et al.[49] T. brucei brucei AnTat 1.9 (IMTA, Antwerpen, Belgium) was cultured in MEM with Earle’s salts, supplemented according to the protocol of Baltz et al.[50] with the following modifications: 0.5 mM mercaptoethanol (Sigma Aldrich), 1.5 mM L-cysteine (Sigma Aldrich), 0.05 mM bathocuproine sulphate (Sigma Aldrich), and 20% heat-inactivated horse serum (Gibco, France) at 37 °C and 5% CO2. Samples were incubated at an average density of 2000 parasites/well in sterile 96-wells plates (Fisher, France) with various concentrations of compounds dissolved in 0.9% NaCl. All doses were tested in duplicate. Appropriate controls treated with solvents 0.9% NaCl or DMSO or with suramin, pentamidine, eflornithine, and fexinidazole (reference drugs purchased from Sigma Aldrich and Fluorochem, UK) were added to each set of experiments. After 69 h incubation period at 37 °C, 10 µl of the viability marker Alamar Blue (Fisher) was added to each well, and the plates were incubated for 5 h. The plates were read in a PerkinElmer ENSPIRE (Germany) microplate reader using an excitation wavelength of 530 nm and an emission wavelength of 590 nm. […] IC50 values were calculated using a nonlinear regression analysis of dose-response curves performed using GraphPad Prism software (La Jolla, CA). IC50 values were calculated from three independent experiments.

[4] = Cytotoxicity evaluation, MTT; assay type: cell-based, human; settings: human
Protocol: These cells are a commonly used human hepatocarcinoma-derived cell line that has characteristics similar to those of primary hepatocytes. These cells express many hepatocyte-specific metabolic enzymes, thus enabling the cytotoxicity of tested product metabolites to be evaluated. […] Duplicate assays were performed for each sample. Each well was microscopically examined for precipitate formation before the medium was aspirated from the wells. After aspiration, 100 µl of MTT solution (0.5 mg/ml in medium without FCS) were then added to each well. […] The MTT solution was removed, and DMSO (100 µl) was added to dissolve the resulting blue formazan crystals. Plates were shaken vigorously (300 rpm) for 5 min. The absorbance was measured at 570 nm with 630 nm as reference wavelength in a BIO-TEK ELx808 Absorbance Microplate Reader. DMSO was used as blank and doxorubicin (Sigma Aldrich) as positive control. Cell viability was calculated as percentage of control (cells incubated without compound). The CC50 was determined from the dose-response curve using the TableCurve 2D version 5.0 software (Systat Software, San Jose, CA)

| IC50 [1] [µM] | IC50 [2] [µM] | IC50 [3] [µM] | Compound | Selectivity index HepG2/3D7 [1] | Selectivity index HepG2/Tryp. [3] | CC50 at 72 h [4] [µM] | CC50 at 72 h ([4]; HepG2 cells, 72 h, read-out: Cytotoxicity to HepG2 cells CC50 values) [µM] |
| --- | --- | --- | --- | --- | --- | --- | --- |
| 2.35 ± 0.488 | ≥ 10 | 1.86 ± 0.135 | CN1CCN(CCCCNCc2ccc(-c3nc(-c4ccc(CNCCCCN5CCN(C)CC5)cc4)c4ccccc4n3)cc2)CC1 [Compound 3d, 2,4-Bis{4-[(4–(4-methylpiperazin-1-yl)butyl)aminomethyl]phenyl}quinazoline] | 12.22 | 15.44 | 28.7 ± 1.9 | – |
| 0.69 ± 0.07 | ≥ 10 | 1.22 ± 0.121 | CN1CCN(CCCCNCc2ccc(-c3cc(-c4ccc(CNCCCCN5CCN(C)CC5)cc4)c4ccccc4n3)cc2)CC1 [Compound 1d, 2,4-Bis{4-[(4–(4-methylpiperazin-1-yl)butyl)aminomethyl]phenyl}quinoline] | 11.17 | 6.32 | 7.71 ± 0.4 | – |
| 1.06 ± 0.103 | ≥ 10 | 1.48 ± 0.178 | CN(C)CCNCc1ccc(-c2nc(-c3ccc(CNCCN(C)C)cc3)c3ccccc3n2)cc1 [Compound 3c, 2,4-Bis{4-[(2-dimethylaminoethyl)aminomethyl]phenyl}quinazoline] | 14.97 | 10.72 | 15.9 ± 1.7 | – |
| 0.43 ± 0.142 | ≥ 10 | 0.72 ± 0.07 | c1cc(CNCCCN2CCOCC2)cc(-c2nc(-c3cccc(CNCCCN4CCOCC4)c3)c3ccccc3n2)c1 [Compound 3u, 2,4-Bis{3-[(3-morpholinopropyl)aminomethyl]phenyl}quinazoline] | 6.14 | 3.67 | 2.64 ± 0.2 | – |
| 1.44 ± 0.128 | ≥ 10 | 1.3 ± 0.101 | CN(C)CCCNCc1cccc(-c2cc(-c3cccc(CNCCCN(C)C)c3)c3ccccc3n2)c1 [Compound 1q, 2,4-Bis{3-[(3-dimethylaminopropyl)aminomethyl]phenyl}quinoline] | 4.68 | 5.18 | 6.74 ± 0.7 | – |
| – | – | – | COc1cccc2c1C(=O)c1c(O)c3c(c(O)c1C2=O)C[C@@](O)(C(=O)CO)C[C@@H]3O[C@H]1C[C@H](N)[C@H](O)[C@H](C)O1 [Doxorubicin, reference compound] | – | – | – | 0.06 ± 0.02 |
| – | 0.1 ± 0.04 | – | C[C@@H]1[C@H](O)[C@@H](C)/C=C/C=C/C=C/C=C/C=C/C=C/C=C/[C@H](O[C@@H]2O[C@H](C)[C@@H](O)[C@H](N)[C@@H]2O)C[C@@H]2O[C@](O)(C[C@@H](O)C[C@@H](O)[C@H](O)CC[C@@H](O)C[C@@H](O)CC(=O)O[C@H]1C)C[C@H](O)[C@H]2C(=O)O [Amphotericin B, reference compound] | – | – | – | – |
| – | – | 15.2 ± 0.64 | NCCCC(N)(C(=O)O)C(F)F (centres unmarked) [Eflornithine, reference compound] | – | – | – | – |
| 1.95 ± 0.774 | ≥ 10 | 1.36 ± 0.194 | CN1CCN(CCCNCc2cccc(-c3cc(-c4cccc(CNCCCN5CCN(C)CC5)c4)c4ccccc4n3)c2)CC1 [Compound 1r, 2,4-Bis{3-[(3–(4-methylpiperazin-1-yl)propyl)aminomethyl]phenyl}quinoline] | 2.55 | 3.65 | 4.97 ± 0.3 | – |
| – | – | 0.59 ± 0.039 | CSc1ccc(OCc2ncc([N+](=O)[O-])n2C)cc1 [Fexinidazole, reference compound] | – | – | – | – |
| 2.15 ± 0.106 | ≥ 10 | 0.9 ± 0.054 | CN(C)CCCCNCc1ccc(-c2nc(-c3ccc(CNCCCCN(C)C)cc3)c3ccccc3n2)cc1 [Compound 3a, 2,4-Bis{4-[(4-dimethylaminobutyl)aminomethyl]phenyl}quinazoline] | 1.96 | 4.70 | 4.23 ± 0.4 | – |
| 1.52 ± 0.172 | ≥ 10 | 2.39 ± 0.129 | CN1CCN(CCCNCc2ccc(-c3nc(-c4ccc(CNCCCN5CCN(C)CC5)cc4)c4ccccc4n3)cc2)CC1 [Compound 3e, 2,4-Bis{4-[(3–(4-methylpiperazin-1-yl)propyl)aminomethyl]phenyl}quinazoline] | 10.44 | 6.64 | 15.9 ± 1.7 | – |
| 1.13 ± 0.107 | ≥ 10 | 2.07 ± 0.196 | CN(C)CCCNCc1cccc(-c2nc(-c3cccc(CNCCCN(C)C)c3)c3ccccc3n2)c1 [Compound 3s, 2,4-Bis{3-[(3-dimethylaminopropyl)aminomethyl]phenyl}quinazoline] | 1.01 | 0.55 | 1.14 ± 0.4 | – |
| 2.52 ± 0.237 | ≥ 10 | 1.05 ± 0.058 | COc1ccc2c(-c3ccc(CNCCCN(C)C)cc3)nc(-c3ccc(CNCCCN(C)C)cc3)nc2c1 [Compound 3n, 7-Methoxy-2,4-bis{4-[(3-dimethylaminopropyl)aminomethyl]phenyl}quinazoline] | 1.08 | 2.58 | 2.71 ± 0.3 | – |
| – | – | 0.03 ± 0.003 | Cc1ccc(C(=O)Nc2ccc(S(=O)(=O)O)c3cc(S(=O)(=O)O)cc(S(=O)(=O)O)c23)cc1NC(=O)c1cccc(NC(=O)Nc2cccc(C(=O)Nc3cc(C(=O)Nc4ccc(S(=O)(=O)O)c5cc(S(=O)(=O)O)cc(S(=O)(=O)O)c45)ccc3C)c2)c1 [Suramine, reference compound] | – | – | – | – |
| 1.34 ± 0.173 | ≥ 10 | 1.59 ± 0.071 | c1ccc2c(-c3ccc(CNCCN4CCOCC4)cc3)cc(-c3ccc(CNCCN4CCOCC4)cc3)nc2c1 [Compound 1h, 2,4-Bis{4-[(2-morpholinoethyl)aminomethyl]phenyl}quinoline] | 3.36 | 2.83 | 4.5 ± 0.4 | – |
